# In patent publication US20220387405A1, “METHODS OF TREATMENT WITH N-((R)-1-(3-CHLOROPYRIDIN-2-YL)-2,2,2-TRIFLUOROETHYL)-2-((S)-2,6-DIOXOPIPERIDIN-3-YL)-1-OXOISOINDOLINE-5-CARBOXAMIDE” (CELGENE CORPORATION, priority 2021, published 2022):
# What was measured:
# TP53 WT AML cell lines = assay: Cell autonomous activity against TP53 WT AML cell lines; format: cell-based
# Text: The remaining 5 cell lines were either medium-sensitive or completely resistant to Compound 1; the unresponsiveness to Compound 1 treatment was associated with inadequate accumulation of p53 protein and/or its transcriptional targets BAX and PUMA.
# [1] = system: leukemic cells from TP53 WT AML patients; assay: PharmaFlow test (Vivia), cytotoxic effect on leukemic cells in AML patient BM samples; format: cell-based, human
# [2] = system: leukemic progenitors from BM samples of AML patients; assay: Colony forming assay (CFU-GM) with BM samples of AML patients; format: cell-based, human; conditions: TP53 WT AML samples (14 of 18), compared to vehicle control
# Experimental: Ex vivo activity of Compound 1 was evaluated in normal and leukemic progenitors from BM samples of 25 AML patients using colony forming assays. […] The effect of Compound 1 on CK1α degradation, p53 accumulation, and activation is concentration- and time-dependent.
# MV4-11 AML cell line = assay: Compound washout experiment in MV4-11 (CK1α, p53 and downstream events); format: cell-based; conditions: 0.3 μM for 12 hours followed by washout
# [3] = system: MV-4-11 AML xenograft model; assay: Single dose PK/PD and efficacy studies, MV-4-11 AML xenograft model; format: in vivo, mice
# Experimental: (§1) The CK1α degradation activity and subsequent antitumor activity of Compound 1 in vivo was tested in two TP53 WT AML cell line-derived xenograft models. The depth and duration of CK1α degradation was dose-dependent.
# Based on single dose pharmacokinetic (PK)/pharmacodynamics (PD) and efficacy studies with the MV-4-11 AML xenograft model, nearly 90% degradation of CK1α at 2 hours post-dose and 50% suppression through 16 hours a day was maintained when the tumor Compound 1 concentration was >0.1 μM. Maintenance of >0.1 μM Compound 1 in tumor, and this degree of CK1α degradation with daily dosing at 3 mg/kg, led to a 73-99% reduction in tumor burden with significant survival benefit.
# [4] = system: MV-4-11-luc disseminated AML xenograft; assay: MV-4-11-luc disseminated AML xenograft model, tumor burden and survival; format: in vivo, mice
# Experimental: as §1
# In a subsequent study, MV-4-11-luc disseminated AML xenografts were treated with 2 cycles of fixed doses and varying dosing duration (5/28 days, 7/28 days and 14/28 days). […] In Kaplan-Meier survival analysis following cessation dosing, the median survival of the vehicle treated animals was 45.5 days. […] The median survival of animals treated with Compound 1 with 2 cycles of 7/28-days at 10, 30, and 50 mg/kg was 67.5 (p<0.0001), 70 (p<0.0001), and 70 (p<0.0001) days, respectively. For the animals treated with 2 cycles of 14/28-days at 3, 10 and 30 mg/kg was 69.5 (p<0.0001), 94.5 (p<0.0001) and 152 (p<0.0001) days, respectively. For 30 mg/kg with 14/28-day cycle, 4/10 animals remained tumor free at the termination of the study on day 154.
# [5] = Partitioning into blood cells; format: in vitro ADME
# Text: There was no marked difference in free fraction among human, rat and monkey. Over the concentration ranges tested (25- to 50-fold range) in each species, there was <2-fold change in free fraction.
# CYP3A4/5 [6] = assay: Enzymatic metabolism (enzyme identification); format: in vitro ADME
# Text: Compound 1 underwent non-enzymatic hydrolysis, oxidation, N-dealkylation, glucuronidation and a combination of these pathways in hepatocytes of human and animal species. Although there were quantitative differences in the formation of Compound 1 metabolites across species, qualitatively all metabolites formed in human hepatocytes were also observed in hepatocytes and plasma of rats and/or monkeys, the two species used for nonclinical safety testing. Following multiple oral administrations of Compound 1 to rats and monkeys, Compound 1 was the predominant component in plasma of both species. The metabolites observed in plasma were similar to those observed in hepatocytes.
# CYP2C8 = target: T1, CYP2C8 (Homo sapiens, UniProt P10632); assay: CYP inhibition in human liver microsomes, CYP2C8; format: in vitro ADME
# T1 construct: In human liver microsomes; from tissue; host or cells: human liver microsomes
# CYP3A4/5 [7] = assay: CYP inhibition in human liver microsomes, CYP3A4/5; format: in vitro ADME
# CYP2B6 [8] = target: T2, CYP2B6 (Homo sapiens, UniProt P20813); assay: CYP inhibition in human liver microsomes, CYP2B6; format: in vitro ADME
# T2 construct: In human liver microsomes; from tissue; host or cells: human liver microsomes
# CYP2D6 = target: T3, CYP2D6 (Homo sapiens, UniProt P10635); assay: CYP inhibition in human liver microsomes, CYP2D6; format: in vitro ADME
# T3 construct: In human liver microsomes; from tissue; host or cells: human liver microsomes
# CYP1A2 = assay: CYP induction in human hepatocyte culture, CYP1A2 mRNA; format: in vitro ADME; conditions: up to 50 μM for three consecutive days
# CYP2B6 [9] = assay: CYP induction in human hepatocyte culture, CYP2B6 mRNA; format: in vitro ADME; conditions: up to 50 μM for three consecutive days
# [10] = system: Salmonella typhimurium strains (TA1535, TA1537, TA98, TA100); assay: Bacterial reverse mutation test, Salmonella typhimurium; format: cell-based
# Experimental: Compound 1 was tested in Salmonella typhimurium strains (TA1535, TA1537, TA98, TA100) and Escherichia coli strain WP2 uvrA at a range of concentrations up to 5000 μg/plate (the standard limit concentration for this assay), in the presence and absence of a supplemented rat liver fraction (S9 mix), using the plate incorporation version of the bacterial reverse mutation test. Dimethyl sulfoxide (DMSO) was used as the solvent.
# The mean revertant colony counts for the negative controls were within the laboratory historical control range. Bacteria were also incubated with standard positive controls, and the response of the various bacterial strains to these agents confirmed the sensitivity of the test system and the activity of the S9 mix. Therefore, the results from both the negative and positive controls confirmed the validity of the assay.
# No substantial increases in revertant colony numbers were obtained with any of the tester strains, following exposure to Compound 1 at any concentration, in either the presence or absence of S9 mix. Therefore, Compound 1 was considered to be negative for the induction of mutagenicity in this in vitro assay.
# T2 sequence (P20813 whole entry): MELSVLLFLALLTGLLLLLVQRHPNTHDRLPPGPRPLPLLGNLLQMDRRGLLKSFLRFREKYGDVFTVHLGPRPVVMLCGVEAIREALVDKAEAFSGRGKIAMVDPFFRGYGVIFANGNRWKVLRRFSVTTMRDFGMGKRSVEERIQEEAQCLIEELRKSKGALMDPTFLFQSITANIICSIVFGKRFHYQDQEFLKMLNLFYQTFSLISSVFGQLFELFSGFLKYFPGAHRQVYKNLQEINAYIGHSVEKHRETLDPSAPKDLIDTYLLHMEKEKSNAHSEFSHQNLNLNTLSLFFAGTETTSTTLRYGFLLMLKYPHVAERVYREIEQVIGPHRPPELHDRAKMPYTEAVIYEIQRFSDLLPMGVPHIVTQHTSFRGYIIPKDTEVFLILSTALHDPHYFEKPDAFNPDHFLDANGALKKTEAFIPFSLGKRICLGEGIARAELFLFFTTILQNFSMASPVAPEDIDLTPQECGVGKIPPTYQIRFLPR
# T1 sequence (P10632 whole entry): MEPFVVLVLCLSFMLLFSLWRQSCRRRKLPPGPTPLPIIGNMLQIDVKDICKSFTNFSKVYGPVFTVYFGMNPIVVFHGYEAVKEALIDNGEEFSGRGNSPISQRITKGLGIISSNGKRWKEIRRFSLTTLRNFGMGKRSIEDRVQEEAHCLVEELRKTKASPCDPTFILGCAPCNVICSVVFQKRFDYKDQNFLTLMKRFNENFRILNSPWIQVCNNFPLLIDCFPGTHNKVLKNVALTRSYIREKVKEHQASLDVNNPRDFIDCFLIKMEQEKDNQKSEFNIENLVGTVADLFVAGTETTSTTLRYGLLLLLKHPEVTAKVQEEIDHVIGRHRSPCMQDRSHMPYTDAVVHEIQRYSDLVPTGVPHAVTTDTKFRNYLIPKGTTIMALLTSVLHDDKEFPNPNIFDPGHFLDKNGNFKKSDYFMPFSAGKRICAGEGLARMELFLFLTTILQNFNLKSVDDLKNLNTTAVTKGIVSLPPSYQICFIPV
# T3 sequence (P10635 whole entry): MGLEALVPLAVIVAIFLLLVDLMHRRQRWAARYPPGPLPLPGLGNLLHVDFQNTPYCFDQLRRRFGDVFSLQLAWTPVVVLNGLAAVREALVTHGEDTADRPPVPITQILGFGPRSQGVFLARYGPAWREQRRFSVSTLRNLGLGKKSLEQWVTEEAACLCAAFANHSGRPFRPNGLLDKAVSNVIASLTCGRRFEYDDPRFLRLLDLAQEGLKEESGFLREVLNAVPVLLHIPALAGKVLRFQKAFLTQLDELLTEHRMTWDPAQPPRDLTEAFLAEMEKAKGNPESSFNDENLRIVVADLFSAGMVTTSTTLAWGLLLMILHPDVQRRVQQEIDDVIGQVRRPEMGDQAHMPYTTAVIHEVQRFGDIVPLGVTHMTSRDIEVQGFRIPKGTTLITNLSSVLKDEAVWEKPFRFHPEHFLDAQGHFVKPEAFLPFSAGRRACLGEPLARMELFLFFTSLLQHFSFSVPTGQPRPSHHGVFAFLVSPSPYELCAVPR
smiles,measurement,setting,value
"O=C1CC[C@H](N2Cc3cc(C(=O)N[C@H](c4ncccc4Cl)C(F)(F)F)ccc3C2=O)C(=O)N1 [Compound 1, N-((R)-1-(3-chloropyridin-2-yl)-2,2,2-trifluoroethyl)-2-((S)-2,6-dioxopiperidin-3-yl)-1-oxoisoindoline-5-carboxamide]",number of cell lines sensitive to Compound 1,TP53 WT AML cell lines; of the 13 TP53 WT AML cell lines tested,8
same,IC50,TP53 WT AML cell lines; the 8 sensitive of 13 TP53 WT AML cell lines tested,0.015 to 0.5 µM
same,IC50,[1]; Homo sapiens,0.022 to 0.412 µM
same,number of BM samples with sensitive leukemic cells,[1]; out of 9 AML patient BM samples,5
same,samples with inhibited formation of CFU-GM colonies,[2],77.8%
same,"persistence of p53 downstream events (p21, phosphor-Ser139-Histone H2A.X, caspase 3 cleavage) after washout",MV4-11 AML cell line,at least 10 hours
same,degradation of CK1α,"[3]; 2 hours post-dose, tumor concentration >0.1 μM",~90%
same,CK1α degradation in AML xenograft tumors,[3]; AML xenograft tumors,significantly degraded
same,reduction in tumor burden,[3]; daily dosing at 3 mg/kg,73-99%
same,suppression of CK1α,"[3]; maintained through 16 hours a day, tumor concentration >0.1 μM",50%
same,animals remaining tumor free at termination of the study,"[4]; 30 mg/kg, 14/28-day cycle, day 154",4/10
same,median survival,"[4]; 2 cycles of 5/28-days at 50 mg/kg, vehicle 45.5 days",68.5 days
same,median survival,[4]; 2 cycles of 7/28-days at 10 mg/kg,67.5 days
same,median survival,[4]; 2 cycles of 7/28-days at 30 mg/kg,70 days
same,median survival,[4]; 2 cycles of 7/28-days at 50 mg/kg,70 days
same,median survival,[4]; 2 cycles of 14/28-days at 3 mg/kg,69.5 days
same,median survival,[4]; 2 cycles of 14/28-days at 10 mg/kg,94.5 days
same,median survival,[4]; 2 cycles of 14/28-days at 30 mg/kg,152 days
same,tumor burden,"[4]; mice with disseminated MV-4-11 AML, dose-, schedule- and duration-dependent",significantly reduced
same,partitioning into blood cells,[5],no or limited partitioning
same,enzymatic metabolism,CYP3A4/5 [6],primarily mediated by CYP3A4/5
same,time-dependent inhibition,"CYP2C8; CYP2C8, 30-minute preincubation with NADPH",not a time-dependent inhibition
same,IC50,"CYP2C8; human liver microsomes, CYP2C8",> 30 µM
same,IC50,"CYP3A4/5 [7]; human liver microsomes, CYP3A4/5",> 30 µM
same,"inhibition at 30 min, 30 µM","CYP3A4/5 [7]; human, liver microsomes, CYP3A4/5, at 30 μM, 30-minute preincubation with NADPH, read-out: time-dependent inhibition",< 20%
same,time-dependent inhibition,"CYP2B6 [8]; CYP2B6, 30-minute preincubation with NADPH",not a time-dependent inhibition
same,inhibitory effect,"CYP2B6 [8]; human liver microsomes, CYP2B6",≤ 25%
same,time-dependent inhibition,"CYP2D6; CYP2D6, 30-minute preincubation with NADPH",not a time-dependent inhibition
same,inhibitory effect,"CYP2D6; human liver microsomes, CYP2D6",≤ 25%
same,mRNA expression of CYP1A2,CYP1A2,no dose-dependent increases
same,mRNA expression of CYP2B6,CYP2B6 [9],no dose-dependent increases
same,toxicity to the bacteria,[10]; highest concentrations tested,non-toxic
same,induction of mutagenicity (revertant colony numbers),"[10]; up to 5000 μg/plate, presence and absence of S9 mix",negative
